Results taken from PubChem BioAssay (NCI).
Where “and” joins values, the source holds several entries; their conditions need not be identical. Identical values can stand only once.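 96-well plates; 48 h exposure; 5 concentrations. Endpoints by linear interpolation between flanking doses. Not reached: highest tested concentration assigned. At the GI50, growth is halved. At the TGI there is no net growth.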

Columns and labels:
Experiment in all cases: NCI tumour cell line growth inhibition, 48 h
DU-145 prostate = tested on: DU-145 prostate
HOP-62 NSCLC = tested on: HOP-62 NSCLC
HS 578T breast = tested on: HS 578T breast
IGROV1 ovarian = tested on: IGROV1 ovarian
OVCAR-8 ovarian = tested on: OVCAR-8 ovarian
SF-295 CNS = tested on: SF-295 CNS
SF-539 CNS = tested on: SF-539 CNS
SK-MEL-2 melanoma = tested on: SK-MEL-2 melanoma
SNB-75 CNS = tested on: SNB-75 CNS
U251 CNS = tested on: U251 CNS

Compound	GI50 (DU-145 prostate) [nM]	TGI (DU-145 prostate)	GI50 (HOP-62 NSCLC) [µM]	TGI (HOP-62 NSCLC)	GI50 (HS 578T breast) [µM]	TGI (HS 578T breast)	GI50 (IGROV1 ovarian) [µM]	TGI (IGROV1 ovarian)	GI50 (OVCAR-8 ovarian) [µM]	TGI (OVCAR-8 ovarian)	GI50 (SF-295 CNS) [µM]	TGI (SF-295 CNS)	GI50 (SF-539 CNS) [µM]	TGI (SF-539 CNS)	GI50 (SK-MEL-2 melanoma) [µM]	TGI (SK-MEL-2 melanoma) [µM]	GI50 (SNB-75 CNS) [µM]	TGI (SNB-75 CNS)	GI50 (U251 CNS) [µM]	TGI (U251 CNS)
Cc1cc(N/N=C/c2ccccn2)nc2ccccc12	460	14.3 µM	0.331	5.06 µM	8.2	34.5 µM	0.356	3.95 µM	0.381	16.6 µM	0.307	3.2 µM	0.289	1.04 µM	4.89	19.6	0.461	15.2 µM	0.378	10.5 µM
O=C1Nc2ccccc2/C1=C1\CCc2cc(O)ccc21	11400	> 25 µM	9.95	> 25 µM	7.12	> 25 µM	7.63	> 25 µM	10.4	> 25 µM	11.3	> 25 µM	9.64	> 25 µM	9.99	> 25	8.06	> 25 µM	8.84	> 25 µM
ClCCN(CCCl)c1ccc(CNc2ccccc2)cc1	5280	> 100 µM	6.32	> 100 µM	12.4	83.2 µM	16	> 100 µM	6.34	> 100 µM	3.16	> 100 µM	3.21	24.2 µM	20.9	51	3.7	57.4 µM	4.43	> 100 µM
COc1ccc(/C(C)=C(\c2ccc(OCCN3CCCCCC3)cc2)c2ccc(OC(=O)C3CCCCC3)cc2)cc1	1910	4.54 µM	1.89	4.21 µM	0.959	3.74 µM	1.21	3.88 µM	2.04	5.9 µM	0.484	1.8 µM	0.833	2.74 µM	1.87	4.19	1.6	3.88 µM	1.01	3.62 µM
COc1ccc(-c2nccn2-c2ccc(OC)cc2)cc1	33300	> 93.8 µM	22	74.4 µM	20.9	74.7 µM	25.2	> 82 µM	23.9	67.5 µM	21	74.2 µM	28	90.4 µM	25.3	> 73.5	5.06	30.3 µM	26.3	> 72.9 µM
c1ccc2c(c1)[nH]c1c2cc[n+]2cc3c(cc12)CCCC3		11 µM and 17 µM	3.77	17 µM and 7.86 µM	2.63	12.2 µM and > 100 µM	5.59	25 µM and 25.5 µM	1.95	7.57 µM and 11.2 µM		16 µM and 14.5 µM	3	11.7 µM and 6.7 µM	1.44		3.07	12.9 µM and 35.9 µM		9.77 µM and 12.1 µM
ClC(Cl)=C1C(=C(Cl)Cl)C(Cl)(Cl)C1(Cl)Cl		23.4 µM		22.1 µM		10.4 µM		18.9 µM		18.7 µM		7.24 µM		6.08 µM		3.32		13.5 µM		13.9 µM
CCc1ccc2c(c1)C(=O)c1c-2n(CCCN=[N+]=[N-])c(=O)c2cc([N+](=O)[O-])ccc12	> 50000	> 50 µM	> 50	> 50 µM	> 50	> 50 µM	> 50	> 50 µM	> 50	> 50 µM	> 50	> 50 µM	> 50	> 50 µM	> 50	> 50	25.5	> 50 µM	> 50	> 50 µM
O=C(c1ccco1)c1c(C(F)(F)F)n([O-])c2ccc(C(F)(F)F)cc2[n+]1=O	500	0.925 µM	1.47	2.95 µM	0.654	2.74 µM	0.368	1.48 µM	0.31	1.15 µM	0.626	1.71 µM	0.475	0.91 µM	1.71	3.49	0.576	1.55 µM	0.217	0.536 µM
CCNC(=O)/C(=C/c1ccc(OC)cc1)c1cc(OC)c(OC)c(OC)c1		80.2 µM		> 100 µM		> 42.2 µM		> 100 µM		> 100 µM		19.6 µM		45.9 µM		> 100		> 73.4 µM		70 µM
COc1cc(/C=C\c2cc(OC)c(OC)c(OC)c2)cc(N/C=C\C(=O)c2c[nH]c3ccccc23)c1OC	2060	4.08 µM	11.6	28.1 µM	2.21	12.9 µM	1.23	3.56 µM	3.33	13.3 µM	7.94	22.9 µM	1.7	3.19 µM	2.21	4.68	1.47	2.92 µM	3.84	15.7 µM
